Source: US20150290201A1, “TREATMENT OF MUSCULAR DYSTROPHIES AND ASSOCIATED CONDITIONS BY ADMINISTRATION OF MONOAMINE OXIDASE INHIBITORS” (UNIVERSITA DEGLI STUDI DI PADOVA, priority 2011, published 2015)

Tests used:
[1] = test system: MAO; experiment: MAO activity assay (Amplex Red/HRP, tyramine) on muscle mitochondrial extracts after in vivo treatment; conditions: Col6a1−/− mice, gastrocnemius, pargyline 50 mg/kg/day i.p. for 1 week
Method: Muscle cryosections were suspended in PBS and centrifuged at 500 g for 10 min at 4° C. The supernatant was centrifuged at 8000×g for 10 min at 4° C. and the resulting pellet was resuspended in PBS and stored on ice until use. Protein concentration was determined by the Bradford assay (Bio-Rad). MAO activity assay was based on the detection of hydrogen peroxide generated during substrate catabolism in a horseradish peroxidase (HRP) coupled reaction using 10-acetyl-3,7-dihydroxyphenoxazine (Amplex Red reagent, Molecular Probes). The mitochondrial protein extracts (40 mg) were incubated in PBS with 10 mM Amplex Red and 15 mg/ml HRP. […] The fluorescence intensity was recorded at 37° C. using a Perkin Elmer LS-50B fluorimeter at the 544/590 nm excitation/emission wavelengths. Parallel samples were run in the absence of a substrate to take into account the increase in fluorescence not due to MAO activity. […]

[2] = test system: Col6a1^−/− mice; experiment: DHE staining for ROS detection in muscle cryosections of Col6a1−/− mice; type: in vivo; conditions: 6-month-old Col6a1−/− mice, pargyline 50 mg/kg/day i.p. 1 week
Method: (§1) Col6a1^−/− mice were backcrossed in the inbred C57BL/6J strain for eight generations as described (Irwin, W. A., et al., (2003) Nat. Genet., 35, 367-371), and data were obtained by comparing Col6a1^−/− mice with their wild-type littermates. Wild-type C57BL/10 mice and mdx (in the C57BL/10 background) were obtained from Charles River and Jackson Laboratories, respectively. Pargyline (50 mg/kg/days) or vehicle (phosphate-buffered saline, PBS) were administered by daily intraperitoneal (i.p.) injection for 7 days in 6-month-old Col6a1^−/− and C57BL/6J male mice or 5-week-old mdx and C57BL/10 male mice. During the treatment, mice were placed in separate cages with a running wheel. At the end of the treatment, mice were sacrificed and muscles were removed and stored in liquid nitrogen until use.
DHE is oxidized by ROS, forming ethidium bromide, which emits red fluorescence when intercalates with DNA (Benov, L., et al., (1998) Free Radic. Biol. Med., 25, 826-831). […] For the detection of the fluorescence, 568±25 nm excitation and 585 nm long-pass emission filter settings were used. Data were acquired and analyzed using Metamorph software (Universal Imaging). […]

[3] = test system: Col6a1^−/− mice; experiment: Pathological markers (TUNEL, IgG staining, Evans blue, myofiber CSA) in Col6a1−/− mice; type: in vivo; conditions: pargyline treatment
Method: as §1
(§2) Cross-sections (7 μm thick) were prepared and processed for hematoxylin and eosin (H&E) staining. For the morphometric analysis of myofiber cross sectional areas (CSAs), we counted approximately 2000 fibers per mouse for each muscle type by means of ImageJ software. At least three sections from each muscle were analyzed. TUNEL (terminal deoxynucleotidyl transferase-mediated dUTP nick end-labeling) was performed on paraffin-embedded sections (7 μm thick) using the ApopTag in situ apoptosis detection kit (Chemicon). Samples were stained with peroxidase diaminobenzidine to detect TUNEL-positive nuclei and counterstained with Hoechst 33258 to identify all nuclei, as described previously (Irwin, W. A., et al., (2003) Nat. Genet, 35, 367-371). The total number of nuclei and number of TUNEL-positive nuclei were determined in randomly selected fibers using a Zeiss Axioplan microscope equipped with a Leica DC 500 camera. Membrane permeability of skeletal muscle was directly visualized by immunohistochemical staining with IgG (Weller, B., et al., (1990) J. Neurol. Sci., 100, 9-13 and Blaauw, B., et al., (2008) Hum. Mol. Genet., 17, 3686-36%). Cryosections (10 μm thick) were incubated with anti-mouse fluorescein isothiocyanate-conjugated IgG, washed twice with PBS, mounted and visualized with an Olympus IMT-2 inverted microscope as previously described (Petronilli V., et al., (1999) Biophys. J., 76, 725-734) using excitation/emission cubes of 488/525±25 nm bandpass. Evans blue dye staining of muscles in vivo was performed by i.p. injection with 0.2 ml Evans blue (10 mg/ml in PBS; Sigma). Mice were sacrificed after 16-18 h and diaphragms were fixed with 4% paraformaldehyde overnight at 4° C. After fixation, the samples were observed by means of light microscopy.
Contractile impairment and high apoptosis rate are two specific features of skeletal muscles of Col6a1^−/− mice (Irwin, W. A., et al. (2003) Nat. Genet 35, 367-371). […] Occurrence of apoptosis was evaluated by TUNEL. […]

[4] = test system: mdx mice; experiment: Tm oxidation (DCB formation) by immunoelectrophoresis, mdx mice; type: in vivo; conditions: gastrocnemius and quadriceps, i.p. pargyline for 1 week
Method: as §1
Protein extracts were prepared as described (Canton, M., et al., (2006) Eur. Heart J., 27, 875-881). Immunoblotting were stained with the following antibodies: anti-Tm CH1 clone (Sigma), anti-MAO-B D-16 and anti-MAO-A H-70 clone (Santa Cruz). […] Quantitation of Tm oxidation was performed by densitometric analysis of the bands obtained under non-reducing conditions (ImageJ software). […] Data were expressed as percentage of DCB relative to vehicle-treated wild-type mice. […]

[5] = test system: Col6a1^−/− mice; experiment: Muscle functional assessment (skinned fiber tension, gastrocnemius force, running wheel) in Col6a1−/− mice; type: in vivo
Method: as §1
Single myofibers were isolated from Col6a1^−/− gastrocnemius muscle, chemically skinned as described (Rossi, R., et al., (2001) Am. J. Physiol. Cell Physiol., 281, C585-0594) and tension was measured during maximal isometric activation (pCa=4.5, T=20° C., initial sarcomere length=2.75 μm). Force measurements were performed in the left and/or right gastrocnemius muscle of anesthetized mice by electrical stimulation through the sciatic nerve, as described previously (Blaauw, B., et al., (2008) Hum. Mol. Genet., 17, 3686-3696). Voluntary exercise was evaluated by placing a wheel in the cage. Before the treatment, mice were placed in separate cages with wheel to acclimatize, then the average distance covered by each mouse in 24 h during the treatment was measured using an automatic counter.
Biochemical and histological analyses were paralleled by functional assessment of the contractile performance of muscles in vivo and isolated muscle fibers in vitro. Single-skinned muscle fibers dissected from gastrocnemius muscle were maximally calcium-activated at optimal sarcomere length. […] After acclimatizing mice for 1 week to a wheel placed in their cage, the daily average distance was measured.

[6] = test system: mdx mice; experiment: Pathological markers (myofiber CSA, H&E inflammation, TUNEL) in mdx mice; type: in vivo; conditions: pargyline treatment
Method: as §1
as §2, with “Cryosections (10 μm thick) were incubated with anti-mouse fluorescein isothiocyanate-conjugated IgG, washed twice with PBS, mounted and visualized with an Olympus IMT-2 inverted microscope as previously described (Petronilli V., et al., (1999) Biophys. J., 76, 725-734) using excitation/emission cubes of 488/525±25 nm bandpass. Evans blue dye staining of muscles in vivo was performed by i.p. injection with 0.2 ml Evans blue (10 mg/ml in PBS; Sigma). Mice were sacrificed after 16-18 h and diaphragms were fixed with 4% paraformaldehyde overnight at 4° C. After fixation, the samples were observed by means of light microscopy.” left out

[7] = test system: mdx mice; experiment: MAO-dependent ROS formation in muscles of mdx mice; type: in vivo; conditions: mdx-parg mice (n = 8)
Method: as §1
(§3) DHE is oxidized by ROS, forming ethidium bromide, which emits red fluorescence when intercalates with DNA (Benov, L., et al., (1998) Free Radic. Biol. Med., 25, 826-831). […] For the detection of the fluorescence, 568±25 nm excitation and 585 nm long-pass emission filter settings were used. Data were acquired and analyzed using Metamorph software (Universal Imaging).

[8] = test system: Col6a1^−/− myoblasts; experiment: Mitochondrial ROS production (Mitotracker Red) in myoblasts under oxidative stress; type: cell-based, mice; conditions: Col6a1−/− diaphragm myoblasts, 100 uM pargyline; inducers 100 uM H2O2, 5 uM arachidonic acid, 0.2 uM antimycin
Method: Myoblasts obtained from the diaphragm of Col6a1^−/− and Col6a1^+/+ mice were loaded with Mitotracker Red (MTR, 20 nM) to assess mitochondrial ROS production. After the first acquisition (with a fluorescence microscope), different inducers of oxidative stress (A: 100 uM H2O2, B: 5 uM arachidonic acid, C: 0.2 uM antimycin) were added and frames were collected at different intervals in the absence (filled square) and in the presence (filled triangles) of a MAO inhibitor (100 uM pargyline).
The extent of ROS accumulation in myoblasts obtained from diaphragm of Col6a1^−/− and Col6a1^+/+ mice was assessed. […] Remarkably, MAO inhibition reduced the presence of ROS in Col6a1^−/− myoblasts underlying the relevance of ROS production due to MAO activity.

[9] = test system: Col6a1^−/− mice; experiment: Tm oxidation (DCB formation) by immunoelectrophoresis, Col6a1−/− mice; type: in vivo; conditions: Col6a1−/− diaphragm, pargyline 50 mg/kg/day i.p. 1 week
[10] = test system: Wild-type C57BL/10 mice; experiment: ROS formation in muscles of wild-type C57BL/10 mice; type: in vivo; conditions: WT-parg mice (n = 8); WT-veh = 100.0
Method: as §1, §3

With C#CCN(C)Cc1ccccc1 [Pargyline, N-Benzyl-N-methylprop-2-yn-1-amine] the “MAO activity in skeletal muscle after treatment” value [1] was “abolished”, the “abnormal production of ROS (DHE fluorescence) in muscles” value [2] was “significantly decreased” and the “damaged myofibers stained by Evans blue” value ([3]; Col6a1−/− diaphragm) was “largely reduced”. For the same molecule, the “number of damaged fibers positive to IgG immunohistochemical staining” value ([3]; Col6a1−/− diaphragm) was “significantly decreased”, the “number of TUNEL-positive nuclei” value ([3]; Col6a1−/− mice, diaphragm sections, vehicle 62.4±2.3, wild-type 2.7±1.2) was 6.9±1 nuclei/mm^2 and the “myofiber cross-sectional area variability (different sizes, prevalence of small fibers)” value ([3]; Col6a1−/− tibialis anterior and diaphragm) was “markedly reduced”. The “oxidative modifications (Tm oxidation, DCB)” value [4] was “significantly decreased”, the “normalized force of gastrocnemius muscle in vivo” value ([5]; Col6a1−/− mice, pargyline treatment) was “significantly increased” and the “voluntary exercise performance (running wheel, daily average distance)” value ([5]; Col6a1−/− mice, pargyline-treated versus untreated) was “significant improvement”. The “contractile impairment (isometric tension of single-skinned fibers)” value ([5]; gastrocnemius fibers of pargyline-treated Col6a1−/− mice, maximal calcium activation) was “disappeared”, the “number of TUNEL-positive nuclei (apoptosis)” value ([6]; diaphragm sections) was “significantly lower incidence” and the “myofiber CSA fiber area distribution” value ([6]; gastrocnemius muscle) was “normalized the fiber area distribution”. For the same molecule, the “tissue inflammation in skeletal muscles (H&E)” value [6] was “reduce tissue inflammation”, the “ROS formation, Quadriceps” value ([7]; WT-veh = 100.0, mdx-veh 119.3 ± 1.3, in %) was 102.9 ± 1.5 and the “ROS formation, Gastrocnemius” value ([7]; WT-veh = 100.0, mdx-veh 127.8 ± 9.0) was 105.6 ± 2.2. For the same molecule, the “susceptibility to oxidative stress / mitochondrial ROS (Mitotracker Red)” value [8] was “reduced”, the “DCB content (Tm oxidation)” value [9] was “significantly reduced” and the “ROS formation, Gastrocnemius” value [10] was 102.8 ± 2.8. The “ROS formation, Quadriceps” value [10] was 96.9 ± 6.2.
